Assay results reported in US4758312A, “Method for in situ corrosion detection using electrochemically active compounds” (Nalco Chemical Company, priority 1987, dated 1988).

How the values were obtained:
[1] = Commercial tetrazolium compounds, detection of iron corrosion (Example 4); conditions: 0.1 percent solution, one percent sodium chloride
[2] = Water solubility of reduced form (formazan); type: physicochemical; conditions: formazan of the synthesized tetrazolium compound
Description: Because the reduced forms of the commercially available tetrazolium salts tested in Example 4 are insoluble, they would present a measurement problem when used in an actual corrosion detection test. The reduced form (the formazan) would precipitate at the corrosion site and be difficult to detect quantitatively in the water sample taken far from the corrosion site. Introduction of a functional group to give water solubility to the reduced form was done to eliminate this problem. Examples of such functional groups are carboxy (COOH), hydroxy (OH), sulfonic (OSO3 H), amino (NH2), etc. These could be introduced on any of the three "R" groups in the generalized tetrazolium structure given below by choosing the appropriate organic compound to be used in the synthesis. [drawing 4]

[3] = Corrosion detection under typical cooling water conditions in recirculation tank (Example 7); conditions: continuous 4 ppm feed from day 4, Inhibitor A

SMILES | Time to Color [1] [min] | Water solubility of formazan formed [2] | Formazan level, stabilized [3]
c1ccc(-c2nn(-c3ccccc3)[n+](-c3ccc(-c4ccc(-[n+]5nc(-c6ccccc6)nn5-c5ccccc5)cc4)cc3)n2)cc1 [Compound 8 (Table 6), 2,2',5,5'-tetraphenyl-3,3'(p-diphenylene)ditetrazolium chloride] | 35 |  | 
O=C(O)c1ccc(-n2nc(-c3ccccc3)n[n+]2-c2ccccc2)cc1 [tetrazolium compound, 2-(p-carboxyphenyl)-3,5-diphenyltetrazolium bromide] |  | water soluble | 2-3 ppb
